US20050250945A1, “Triazine compounds as inhibitors of bacterial type III protein secretion systems” (priority 2004, published 2005)

Tests used:
Type in all cases: cell-based
[1] = test system: type III protein secretion system of P. aeruginosa PA103 (ExoU secretion); assay: Tertiary assay: Type III-dependent secretion of ExoU by P. aeruginosa PA103 (SDS-PAGE band quantitation); conditions: Pseudomonas aeruginosa; P. aeruginosa PA103, ExoU secreted into extracellular medium
Excerpt: Tertiary assay: Inhibition of Type III protein secretion of effectors from a Pseudomonas aeruginosa system. Type III protein secretion is used by P. aeruginosa to secrete several essential virulence determinants. One effector of the type III protein secretion system of P. aeruginosa PA103 is the virulence determinants ExoU.
The amount of Type III-dependent secretion of ExoU by P. aeruginosa PA103 can be determined in a cell-based assay by quantification of the 73.9 kDa ExoU protein secreted into the extracellular medium. Such quantitation can be achieved by growing strain PA103 in a deferrated medium in the presence of nitrilotriacetic acid (an inducer of Type III protein secretion in P. aeruginosa) and either in the presence or absence of putative inhibitors. After a prolonged growth period, the cells are sedimented and the supernatants concentrated by ammonium sulfate precipitation. The proteins in the resuspended pellets are separated by electrophoresis on SDS-polyacrylamide gels. After staining gels with Colloidal Blue™, the 73.9 kDa ExoU band is quantitated by scanning through an imager. The effects of inhibitors on the intensity of the ExoU band may be measured relative to that of untreated controls.

[2] = test system: SPI1 type III protein secretion system (SopE‘-’Bla secretion); assay: Primary assay: Type III protein secretion of the chimeric SopE‘-’Bla polypeptide (nitrocefin hydrolysis); conditions: Salmonella enterica, read-out: SopE IC50(uM)
Excerpt: Primary assay: Type III protein secretion of the chimeric SopE‘-’Bla polypeptide by Salmonella enterica. This procedure is a cell-based assay that measures the type III-dependent secretion by Salmonella enterica of a plasmid-encoded chimeric polypeptide whose synthesis can be regulated, and which is endowed with an enzymatic activity that can be monitored colorimetrically by hydrolysis of a substrate that is unable to penetrate into the bacterial cytoplasm within the time constraints of the reaction. Thus, the colorimetric reaction is not influenced by SopE‘-’Bla polypeptide in the bacterial cytoplasm. Instead, it effectively measures the amount of polypeptide that has been secreted from the S. enterica cytoplasm to the extracellular medium via type III system protein secretion.
The SopE‘-’Bla recombinant polypeptide consists of two functionally distinct domains spliced together. The N-terminus domain is encoded by a polynucleotide region specifying the signal for type III secretion of the SopE polypeptide of S. enterica, an effector of the SPI1 type III protein secretion system. The C-terminus domain of SopE‘-’Bla consists of a 263 amino acid peptide sequence that corresponds to the TEM-1 β-lactamase expressed by plasmid pBR322 but without its N-terminal signal sequence. The TEM-1 β-lactamase part of the SopE‘-’Bla chimeric polypeptide is used as a reporter enzyme. It is capable of hydrolyzing nitrocefin resulting in a product whose accumulation can be monitored by colorimetric detection. The secretion of the SopE‘—’Bla chimeric polypeptide from the cytoplasm to the extracellular medium is dependent on type III protein secretion.
For this procedure, cells grown under conditions known to favor a functional SPI1 secretion system are induced for expression of the SopE‘-’Bla protein and grown either in the presence or in the absence of putative inhibitors for determined time. Nitrocefin is then added to the various cultures and its hydrolysis are used for quantitation. An inhibitor of Type III protein secretion is generally a compound that reduces the signal of the enzymatic reaction by decreasing the amount of SopE‘-’Bla secreted into the extracellular medium.

[3] = test system: SPI1 type III protein secretion system (SipB secretion); assay: Secondary assay: Type III-dependent protein secretion of the SipB polypeptide (immunoblot); conditions: Salmonella enterica, read-out: SipB IC50(uM)
Procedure: Secondary assay: Type III-dependent protein secretion of the SipB polypeptide by S. enterica. The SipB protein of S. enterica is another effector of the SPI1 type III protein secretion system from S. enterica. In this cell-based procedure, the Type III-dependent secretion of SipB from the bacterial cytoplasm to the extracellular medium was measured through its reactivity with a cognate mouse monoclonal.
Salmonella enterica cells growing either in the presence or in the absence of inhibitors are induced for the production of SipB. Following an established period of growth the cells are sedimented and the amount of SipB present in the supernatant is quantified with a scanning imager following application of immunoblot techniques. Detection may employ an anti-SipB mouse monoclonal antibody (e.g., obtained from Jorge Galan, SUNY at Stony Brook, N.Y.) followed by treatment with commercially available sheep anti-mouse polyclonal antibody conjugated with horseradish peroxidase. Thereafter the membrane is treated with a peroxidase chemiluminescent substrate and exposed to film for an appropriate exposure time. Inhibition may be measured relative to untreated controls.

Row | Compound | IC50 [1] | IC50 [2] | IC50 [3]
1 | O=C(O)[C@H](COCc1ccccc1)Nc1nc(-c2ccc3ccccc3c2)nc(N2CCN(c3ccccn3)CC2)n1 [Compound 1, (S)-3-Benzyloxy-2-[4-naphthalen-2-yl-6-(4-pyridin-2-yl-piperazin-1-yl)-[1,3,5]triazin-2-yl-amino]propionic acid] | > 100 µM | 12.4 µM | 64.8 µM
2 | O=C(O)C(CSCc1ccccc1)Nc1nc(-c2ccc(-c3ccccc3)cc2)nc(N2CCN(c3ccccn3)CC2)n1 (stereo in doubt) [Compound 2, (S)-3-Benzylsulfanyl-2-[4-biphenyl-4-yl-6-(4-pyridin-2-yl-piperazin-1-yl)-[1,3,5]triazin-2-yl-amino]propionic acid] | > 100 µM | 6.4 µM | 36.1 µM
3 | O=C(O)[C@H](C[S+]([O-])Cc1ccccc1)Nc1nc(-c2ccc(C(F)(F)F)cc2)nc(N2CCN(c3ccccn3)CC2)n1 (stereo partly drawn) [Compound 10, (R)-3-Phenylmethanesulfinyl-2-[4-(4-pyridin-2-yl-piperazin-1-yl)-6-(4-trifluoromethylphenyl)[1,3,5]triazin-2-yl-amino]propionic acid] | > 100 µM | 50.1 µM | > 100 µM
4 | O=C(O)C(Cc1ccc(-c2ccc(-c3ccccc3)cc2)cc1)Nc1nc(-c2ccc(-c3ccccc3)cc2)nc(N2CCN(c3ccccn3)CC2)n1 (stereo not drawn) [Compound 7, 2-[4-Biphenyl-4-yl-6-(4-pyridin-2-yl-piperazin-1-yl)[1,3,5]triazin-2-yl-amino]-3[1,1′;4′,1″]terphenyl-4-yl-propionic acid] | > 100 µM | 12.6 µM | 17.5 µM
5 | O=C(O)C(Cc1ccc(-c2ccc(C(F)(F)F)cc2)cc1)Nc1nc(-c2ccc(C(F)(F)F)cc2)nc(N2CCN(c3ccccn3)CC2)n1 (stereo not drawn) [Compound 5, 2-[4-(4-Pyridin-2-yl-piperazin-1-yl)-6-(4-trifluoromethylphenyl)[1,3,5]triazin-2-yl-amino]-3-(4′-trifluoromethylbiphenyl-4-yl)propionic acid] | > 100 µM | 10.2 µM | 18.2 µM
6 | O=C(O)C(Cc1ccc(Cl)cc1)Nc1nc(-c2ccc(-c3ccccc3)cc2)nc(N2CCN(c3ccccn3)CC2)n1 (stereo not drawn) [Compound 6, 2-[4-Biphenyl-4-yl-6-(4-pyridin-2-yl-piperazin-1-yl)[1,3,5]triazin-2-yl-amino]-3-(4-chlorophenyl)propionic acid] | > 100 µM | 5.3 µM | 28 µM
7 | O=C(O)C(Cc1ccc(Cl)cc1)Nc1nc(-c2ccc(C(F)(F)F)cc2)nc(N2CCN(c3ccccn3)CC2)n1 (stereo not drawn) [Compound 4, 3-(4-Chlorophenyl)-2-[4-(4-pyridin-2-yl-piperazin-1-yl)-6-(4-trifluoromethylphenyl)[1,3,5]triazin-2-yl-amino]propionic acid] | > 100 µM | 8.5 µM | 46.4 µM
8 | O=C(O)[C@H](C[S+]([O-])Cc1ccccc1)Nc1nc(-c2ccc(C(F)(F)F)cc2)nc(N2CCc3ccccc3C2)n1 (stereo partly drawn) [Compound 3, (R)-2-[4-(3,4-Dihydro-1H-isoquinolin-2-yl)-6-(4-trifluoromethylphenyl)-[1,3,5]triazin-2-yl-amino]-3-phenylmethanesulfinylpropionic acid] | > 100 µM | 8.5 µM | 12.5 µM
9 | O=C(O)[C@H](C[S+]([O-])Cc1ccccc1)Nc1nc(-c2ccc(-c3ccccc3)cc2)nc(N2CCN(c3ccccn3)CC2)n1 (stereo partly drawn) [Compound 8, (R)-2-[4-Biphenyl-4-yl-6-(4-pyridin-2-yl-piperazin-1-yl)[1,3,5]triazin-2-yl-amino]-3-phenylmethanesulfinylpropionic acid] | > 100 µM | 14.4 µM | 34 µM
10 | O=C(O)[C@H](CSCc1ccccc1)Nc1nc(Nc2ccc(C(F)(F)F)cc2)nc(-c2ccc3c(c2)OCO3)n1 [Compound 26, (R)-2-[4-Benzo[1,3]dioxol-5-yl-6-(4-trifluoromethylphenylamino)[1,3,5]triazin-2-yl-amino]-3-benzylsulfanylpropionic acid] | 52.1 µM | 5.8 µM | 28.1 µM
